Source: article PMC3587609, “A Novel Cell-Penetrating Peptide Derived from Human Eosinophil Cationic Protein” (PLoS ONE, 2013)
Blank lines part the entries; values can stand above or below the substance they belong to. No end group written: not given here.

Key:
Beas-2B cells [1] = assay: Cell-surface HS / CS after enzyme treatment (anti-HS or anti-CS antibody, flow cytometry); format: cell-based; settings: 10 U/ml chondroitinase ABC, 2 h, anti-CS monoclonal antibody, untreated cells 100%, n = 3
Procedure: (§1) Figure 3 HS-dependent ECP^32–-41 internalization. […] (B) Samples of wild-type and mutant CHO cells were each incubated with 5 µM FITC-ECP^32–41 at 37°C for 1 h and then subjected to flow cytometry. (C) Samples of wild-type and mutant CHO cells were incubated with 5 µM FITC-ECP^32–41 at 37°C for 1 h., then washed twice with 1 ml PBS, and fixed for CLSM. Nuclei were stained with Hoechst 34850. Scale bar: 20 µm. (D) Beas-2B cells were treated with heparinase I, heparinase III, or chondroitinase ABC for 2 h prior to incubation with 5 µM FITC-ECP^32–41 at 37°C for 1 h. […] Untreated cells served as the controls. The fluorescence of cells treated with FITC-ECP^32–41 was set to 100%. […] (E) Beas-2B cells were treated with heparinase I, heparinase III, or chondroitinase ABC for 2 h. […] Untreated cells served as the control. The fluorescence of the untreated cells was set to 100%.
To verify that selective cell-surface polysaccharides had been enzymatically removed, the treated cells were subsequently incubated with anti-HS or anti-CS monoclonal antibodies. As expected, heparinase I and heparinase III had decreased the amount of HS on Beas-2B cell surfaces by 48% and 61%, respectively (Figure 3E, left panel), and chondroitinase ABC removed 72% of the cell-surface CS (Figure 3E, right panel). The HS that remained on Beas-2B cell surface accounted for the observed ECP^32–41 internalization into heparinase-treated cells. Conversely, even though 70% of the initial cell-surface CS had been removed, ECP^32–41 internalization was hardly affected–thus as concluded above, HS, rather than CS, is responsible for ECP^32–41 internalization.
Beas-2B cells (3.0×10^5/well) were incubated with RPMI 1640 medium overnight in six-well plates and then treated with 5 U/ml of heparinase I, 2.4 U/ml of heparinase III, or 10 U/ml of chondroitinase ABC (Sigma-Aldrich) at 37°C for 2 h. After a PBS wash, the cells were incubated with FITC-ECP^32–41 and assayed for internalization of the peptide by flow cytometry as described above.

AGS cells = assay: Cell viability assay (MTT); format: cell-based, human; settings: 24 h
Text: (§2) The cell viability untreated cells was set to 100%.

Caco-2 cells = assay: Cell viability assay (MTT); format: cell-based, human; settings: 24 h
Text: as §2

Beas-2B cells [2] = assay: Cell-based ELISA: binding of FITC-peptides to Beas-2B cells; settings: 5 µM FITC-peptides, 4°C, 1 h, washed twice with PBS, cell-based ELISA (FITC fluorescence), FITC-ECP32–41 bound normalized to 100%, mean ± S.D., n = 4
Procedure: Cells (2×10^4/well) were seeded into 96-well black plate and incubated under a 5% CO2 atmosphere at 37°C for 24 h. Each well was then washed with 150 µl ice-cold PBS. To prevent non-specific antibody binding, BSA was used as a blocking agent, and PBS containing 2% (w/v) BSA was added to each well at 4°C and incubated for 1 h. The wells were then washed with 100 µl ice-cold PBS. FITC-conjugated peptides were diluted to 10, 20, or 100 µM in PBS and then, medium (95 µl) and a peptide/PBS solution (5 µl) were gently mixed, added into a well, and the plate was placed on ice for 1 h. Each well was then washed with 100 µl PBS and the FITC fluorescent intensity for each sample was measured using a fluorescence spectrophotometer (Wallac Victor II, Perkin Elmer, USA) and excitation and emission wavelengths of 485 nm and 521 nm respectively.

Beas-2B cells [3] = assay: Flow cytometry: internalization of FITC-peptides into Beas-2B cells; format: cell-based; settings: 5 µM FITC-peptides, 37°C, 1 h, washed, trypsinized 37°C 15 min, cells treated with ECP32–41 set as 100%, mean ± S.D., n = 4
Procedure: Internalization of FITC-ECP^32–41 and FITC-EDN^32–41 was measured as the median ﬂuorescence intensity (MFI) of 6.0×10^5 Beas-2B cells that had been treated with one of the FITC-labelled peptides (1 to 20 µM) at 37°C for 1 h, and then treated with trypsin to remove surface-bound peptides. […] When Beas-2B cells were treated with 5 µM of a FITC-peptide at 37°C, the fluorescent signal for FITC-ECP^32–41 increased within 5 min, and reached plateau at 30 min (Figure 1B).
(§3) Figure 1 Internalization of ECP^32–41 and EDN^32–41. (A) Beas-2B cells were incubated with 1, 5, 10, or 20 µM FITC-ECP^32–41, FITC-EDN^32–41, or FITC at 37°C for 1 h. […] (B) Beas-2B cells were incubated with 5 µM FITC-ECP^32–41, FITC-EDN^32–41, or FITC at 37°C for 5, 10, 30, or 60 min. The cells were then treated as described in (A) and subjected to flow cytometry. The results in (A) and (B) are expressed as the mean ± standard deviation (S.D.), n = 3. (C) Beas-2B cells were incubated with 5 µM FITC-ECP^32–41, FITC-EDN^32–41, or FITC at 37°C for 5 or 60 min before CLSM. Nuclei were stained with Hoechst 34850. Scale bar: 20 µm.
Cells (3.0×10^5/well) were added into six-well plates and cultured in the indicated medium. […] The fluorescent intensities of the cell samples were measured using a FACSCalibur flow cytometer (BD Biosciences, Franklin Lakes, NJ) and excitation and emission wavelengths of 488 nm and 515–545 nm respectively. […]

Beas-2B cells [4] = assay: Confocal laser-scanning microscopy (CLSM) of FITC-peptide internalization; format: cell-based; settings: 5 µM peptide, 37°C, 5 and 60 min
Procedure: as §3
Cells were cultured on coverslips (1.0×10^4/coverslip) in indicated medium. After 24 h, cell samples were each incubated at 37°C for 1 h with an FITC-peptide. The cells were then washed twice with PBS, fixed with 2% (w/v) paraformaldehyde and incubated, first in PBS for 15 min, then with 50 mM NH4Cl in PBS for 10 min, and finally permeabilised with 0.5% (v/v) Triton-X-100 at 25°C for 5 min. Nuclei were stained with Hoechst 33342 Fluorescent Stain, (Sigma-Aldrich) during the final 5 min of incubation. Cells were then washed twice with 0.05% Triton-X-100, once with PBS, and the coverslips were mounted in a Vectashield anti-fade mounting medium (Vector Labs). […]

CHO-pgsA745 cells = assay: Cell-based ELISA: binding to GAG-deficient CHO cells; design: species or system Chinese hamster; settings: CHO-pgsA745 cells (no GAG), 5 µM FITC-ECP32–41, 4°C, 1 h, CHO-K1 normalized to 100%, n = 3
Procedure: (§4) Cell-membrane GAGs including HS, CS/DS, and HA are necessary for CPP internalization, [6]. To assess the effect of GAGs on ECP^32–41 cellular binding ability, soluble GAGs including LMWH, CSC, and HA were used as competitors to inhibit the attachment of ECP^32–41 to Beas-2B cells. […] To clarify the roles of cell-surface HS and CS, the binding of ECP^32–41 to wild-type and two mutant strains of Chinese hamster ovary (CHO) cells was assessed by ELISA. […] CHO-pgsA745 cells are deficient in xylosyltransferase so that no GAG was present on the surface. […] GAGs, and especially HSPGs, are therefore crucial for the initial interaction of ECP^32–41 with cell surfaces.
(§5) Figure 2 Cell-surface GAG-dependent binding of ECP^32–41. […] After washed twice with PBS, cells were subjected to ELISA. […] (B) CHO cells were incubated with 5 µM FITC-ECP^32–41 at 4°C for 1 h, washed twice with PBS, and subjected to ELISA. The amount of FITC-ECP^32–41 bound to CHO-K1 cells was normalized to 100%.
(§6) Cells (2×10^4/well) were seeded into 96-well black plate and incubated under a 5% CO2 atmosphere at 37°C for 24 h. Each well was then washed with 150 µl ice-cold PBS. […] Each well was then washed with 100 µl PBS and the FITC fluorescent intensity for each sample was measured using a fluorescence spectrophotometer (Wallac Victor II, Perkin Elmer, USA) and excitation and emission wavelengths of 485 nm and 521 nm respectively.

CHO-pgsD677 cells = assay: Cell-based ELISA: binding to HS-deficient CHO cells; design: species or system Chinese hamster; settings: CHO-pgsD677 cells (lack HS), 5 µM FITC-ECP32–41, 4°C, 1 h, CHO-K1 normalized to 100%, n = 3
Procedure: as §4, §5, §6

CHO-K1 cells = assay: Internalization into wild-type CHO cells (flow cytometry and CLSM); format: cell-based, Chinese hamster; settings: 5 µM FITC-ECP32–41, 37°C, 1 h
Procedure: as §1
(§7) Cells (3.0×10^5/well) were added into six-well plates and cultured in the indicated medium. After 24 h, each FITC-peptide, dissolved in medium, was added into a well and the samples incubated for 1 h. Cells were then harvested, washed, and suspended in PBS. The fluorescent intensities of the cell samples were measured using a FACSCalibur flow cytometer (BD Biosciences, Franklin Lakes, NJ) and excitation and emission wavelengths of 488 nm and 515–545 nm respectively. […]

CHO pgsD-677 cells = assay: Internalization into HS-deficient CHO cells (flow cytometry and CLSM); format: cell-based, Chinese hamster; settings: CHO pgsD677 cells, 5 µM FITC-ECP32–41, 37°C, 1 h
Procedure: as §1, §7

CHO pgsA-745 cells = assay: Internalization into GAG-deficient CHO cells (flow cytometry and CLSM); format: cell-based, Chinese hamster; settings: CHO pgsA745 cells, 5 µM FITC-ECP32–41, 37°C, 1 h
Procedure: as §1, §7

Beas-2B cells [5] = assay: Internalization after heparinase / chondroitinase ABC depletion of GAGs; format: cell-based; settings: 10 U/ml chondroitinase ABC, 37°C, 2 h, then 5 µM FITC-ECP32–41, 37°C, 1 h; flow cytometry; n = 3
Procedure: as §1, §7

Beas-2B cells [6] = assay: Cell viability assay (MTT)
Procedure: Beas-2B cells were grown in serum-free medium in the presence of ECP^32–41 at indicated concentrations for 24 h. (A) The cytotoxic effect of ECP^32–41 was measured by MTT assay. The cell viability of untreated cells was set to 100%. Cells treated with 0.1% Triton X-100 was used as a positive control. (B) The membrane disruption by ECP^32–41 was measured by LDH assay. LDH released from cells lysed with 0.1% Triton X-100 in medium was defined as 100% leakage and LDH released from untreated cells was set as 0% leakage.
Beas-2B cells were incubated with 10 µM eGFP or eGFP-ECP^32–41 at 37°C for 1 h. The cells were then washed with 500 µl PBS, trypsinized at 37°C for 15 min, suspended in 500 µl PBS, and subjected to flow cytometry. (B) Beas-2B cells were treated with the indicated concentrations of TAT^47–57, ECP^32–41, KLA, KLA-TAT^47–57 or KLA-ECP^32–41 at 37°C for 24 h, and their cytotoxic effects were determined by the MTT assay. Cytotoxic effects of (C) KLA-TAT^47–57 and (D) KLA-ECP^32–41, at the indicated concentrations, on Beas-2B, A549, Caco-2, and AGS cells were assessed by the MTT assay after incubation at 37°C for 24 h. The cell viability untreated cells was set to 100%. The result is expressed as the mean ± S.D., n = 3.
The effects of the peptides on cell viability were determined colourimetrically using 3-(4,5-dimethylthiazol-2-yl)-2,5-diphenyltetrazolium bromide (MTT) (US Biological). Cells (1.0×10^4/well) were seeded into the wells of 96-well plates and incubated overnight. Cell samples were then exposed to different concentrations of TAT^47–57, ECP^32–41, KLA, KLA-TAT^47–57 or KLA-ECP^32–41. After 24 h, 100 µl of 0.5 mg/ml MTT in medium was added into each well, and the cells were incubated at 37°C for 3 h. The incubation medium was removed, and the remaining purple crystal formazan was dissolved in dimethylsulphoxide. Cells treated with 0.1% Triton X-100 was used as a positive control for cell viability. A540 values were measured using a multiwall plate reader (Molecular Devices).

Beas-2B cells [7] = assay: Membrane disruption assay (LDH leakage); format: cell-based; settings: up to 100 µM, 37°C, 24 h, 0.1% Triton X-100 = 100% leakage, P>0.05, n = 3
Procedure: Lactate dehydrogenase (LDH) was used to quantify membrane disruption. The release of LDH from cells was measured by Promega CytoTox-ONE assay (Promega, USA). […] Cell samples were then exposed to different concentrations of ECP^32–41. After 24 h, 100 µl of extracellular medium was transferred to a black 96-well plate containing 100 µl of CytoTox-ONE reagent, incubated at RT for 10 min. Fluorescent intensity for each sample was measured using a fluorescence spectrophotometer (Wallac Victor II, Perkin Elmer, USA) and excitation and emission wavelengths of 540 nm and 590 nm respectively.

[8] = Circular dichroism spectroscopy; format: physicochemical; settings: data not shown

Substance: chondroitinase ABC
cell-surface CS removed (Beas-2B cells [1]): 72%

Substance: KLAKLAKKLAKLAKNYRWRCKNQN [KLA-ECP^32–41]
EC50 fold higher than that of KLA-TAT47–57 (AGS cells): 2.42 fold | EC50 fold higher than that of KLA-TAT47–57 (Caco-2 cells): 1.6 fold

LDH levels (membrane disruption), treated versus untreated cells (Beas-2B cells [7]): no significant changes | secondary structure by circular dichroism spectroscopy [8]: random coil
Substance: NYRWRCKNQN [ECP^32–41]
Binding (%) (Beas-2B cells [2]): 100% | Penetrating (%) (Beas-2B cells [3]): 100% | intracellular fluorescence by CLSM (Beas-2B cells [4]): clearly detected | reduction of binding versus CHO-K1 cells (CHO-pgsA745 cells): 52% | reduction of binding versus CHO-K1 cells (CHO-pgsD677 cells): 31% | internalization monitored by CLSM (CHO-K1 cells): clearly observed for CHO-K1 cells | internalization monitored by CLSM (CHO pgsD-677 cells): but not for CHO pgsD677 or pgsA745 cells | internalization monitored by CLSM (CHO pgsA-745 cells): but not for CHO pgsD677 or pgsA745 cells | effect of CS depletion (chondroitinase ABC) on internalization (Beas-2B cells [5]): little effect | cell viability (MTT) at 100 µM (Beas-2B cells [6]): neither peptide affected cell viability
